Experimental data: patent EP0702015B1, “Bicyclic oxazole and thiazole substituted ethers” (Novartis AG, priority 1994, dated 1996)

Columns and labels:
[1] = test system: rat muscle cell line (L6 myocytes); experiment: L6 myocyte screen (glucose utilization); type: cell-based; conditions: differentiated L6 myocytes, 20 hours treatment, DMEM with 15 mM glucose, concentration producing 50 % of maximum response versus control, read-out: EC50 in the L6 myocyte test
Protocol: This is indicated in standard tests, e.g. in vitro by the L6 myocyte screen in a rat muscle cell line:
The L6 myocyte screen determines the direct effects of 1 to 300 µM concentrations of the agents on glucose utilization in the rat muscle cell line. Rat L6 myoblasts (American Type Culture Collection) are maintained in Dulbecco's modified Eagle's medium (DMEM, Gibco) containing 5 mM glucose and 10 % calf serum supplement. The L6 myoblasts are plated in 96-well microtiter plates at a density of 3000 cells/well. Differentiated myocytes are used in experiments on the 11th or 13th day after plating. All test agents are dissolved in 1 % dimethylsulfoxide (DMSO) in serum-free testing media. The DMSO has no effect on glucose utilization. Each experiment includes the following internal controls: water, glucose standard (300 mg/dl), media blank, media control, ciglitazone standard (30 µM) and an insulin dose-response curve (0.03 - 1 µM). All compounds are tested in quadruplicate in each experiment at concentrations of 1, 3, 10, 30,100 and 300 µM. The L6 cells are treated with test compound and DMEM containing 15 mM glucose for 20 hours. Glucose utilization is assessed by measurement of glucose remaining in the media using a glucose oxidase assay (Ciba-Corning #S1004B). The EC50 is the concentration of the test agent estimated to produce 50 % of the maximum response versus control.

[2] = test system: male ob/ob mice; experiment: ob/ob hypoglycemia test; type: in vivo; conditions: oral gavage once a day for three days, blood glucose lowering, calculated on day 3
Protocol: The antidiabetic activity is indicated in vivo e.g. in the ob/ob hypoglycemia test in male ob/ob mice, given 1 to 200 mg/kg of drug. The mice, approximately 2 to 3 months of age, weighing about 30 g, are kept in a room at a controlled ambient temperature of 22° C and a 12/12 hour light/dark cycle for at least seven days before the screen and then during testing. In the ob/ob screen, Purina rodent chow and water are available ad libitum. For each screen, mice are matched and placed in treatment groups (six mice per group) on the basis of initial blood glucose levels the day prior to screening (day 0). Animals are dosed once a day for three days with either vehicle (carboxymethylcellulose 0.5 %, with Tween-80 0.2 %) or test compound in vehicle. The animals receive 0.1 ml/10 g body weight administered orally by gavage. On day 1, blood glucose levels are sampled from the tip of the tail at 2 and 4 hours post-dose. On day 3, blood glucose levels are sampled at 2, 4 and 8 hours post-dose. Blood glucose levels are measured by the glucose oxidase method (YSI Model 27, Yellow Springs, Ohio). […] A systematic, quantitative procedure for assessing the behavioral and physiological state of the mouse, in Psychopharmacologica 12 (1968) 222-257.
Efficacy for glucose lowering is determined by comparing glucose levels of control animals to those of treated animals. […]

Row | SMILES | EC50 [1] [µM] | EC50 in the ob/ob hypoglycemia test [2]
1 | O=C1CC[C@]2(c3ccc(Cl)c(Cl)c3)O[C@H](COc3ccc(Cl)cc3)CN12 [Example 1, (-)-trans-2S-[(4-Chlorophenoxy)methyl]-7A-(3,4-dichlorophenyl)-2,3,7,7a-tetrahydropyrrolo[2.1-b]oxazol-5(6H)-one] | ~10 | –
2 | O=C1CC[C@]2(c3ccc(Cl)c(Cl)c3)O[C@H](COc3ccc(Cl)cc3)CN12 (racemic) [Example 3, (±)-trans-2-[(4-Chlorophenoxy)methyl]-7a-(3,4-dichlorophenyl)-2,3,7,7a-tetrahydropyrrolo[2,1-b]oxazol-5(6H)-one] | ~14 | about 62 mg/kg
